Columns and labels:
[1] = cited from earlier work; for Solubility (in words): background statement
[2] = Swine trial (16 barrows, 14 days): zinc in ileal, cecal and fecal samples and zinc digestibility; format: in vivo; conditions: pigs
Description: A representative animal trial used a group of 16 barrows (castrated male pigs) including of 8 pairs of littermates. […] The littermate pairs were divided in half and randomly assigned to either the control diet or the test diet containing a composition of the presently disclosed subject matter. Each diet was formulated using a basal diet primarily of corn and soybean meal containing 50 ppm Zn from an added vitamin premix. The control diet contained an additional 50 ppm Zn from Basic Zinc Chloride (Zn5Cl2(OH)8.H2O) and the test diet contained an additional 50 ppm Zn from a composition of the presently disclosed subject matter for a total of 100 ppm Zn for each diet to meet the National Research Council recommendation for zinc supplementation of pigs of this size. The composition of the presently disclosed subject matter was prepared as described herein above.
Pigs were fed twice daily at 0800 and 1700 for the entirety of the trial. Daily feed intake for maintenance was determined for each pig at 4% of initial body weight at the beginning of the trial. Each pig was housed in a separate metabolism crate allowing for the quantitative collection of feces and urine. The trial lasted for a total of 14 days; the first 10 days allowed for the pigs to adjust to their new environments and diets. Days 11-13 for were used for twice-daily feces and urine collection. On day 14 all pigs were weighed and humanely euthanized prior to dissections to obtain ileal and cecal content samples. Feces samples and urine samples were pooled daily and stored at −20 C until ready for analysis. Fecal, ileal, and cecal samples were dried at 64 C in a drying oven until no change in mass was observed which took between 48-96 hours for most samples. After being dried completely, samples were sent to Missouri Field Laboratories for analysis of Zn, Titanium dioxide which was used as a feed marker, and proximate nutrient analysis. Pigs gained an average of 7.34 kilograms per pig during the 14 day trial.
The control diet, containing all supplemental zinc from basic zinc chloride, contained 134 ppm zinc. […] This may be indicative of the composition of the presently disclosed subject matter having higher levels of zinc than used in formulation of the diets.
Using the concentration of zinc found in the feed and ileal, cecal and fecal samples, zinc digestibility by the following equation: 100−[100*(zinc in feed/zinc in feces)]. Since the amounts of zinc present in the diets were over the zinc requirement of pigs of this size and age, the extra zinc in the diets employing a composition of the presently disclosed subject matter (referred to as “Experimental” in Table 2) may have affected the zinc digestibility results.

Solubility in water = format: physicochemical; conditions: description of the patent's own materials
[3] = 100-[100*(zinc in feed/zinc in sample)]

[O]=[Zn] [Zinc oxide]
Solubility (in words) [1]: relatively insoluble except in acid

[Cl-].[Cl-].[Zn+2] [ZnCl2]
Solubility (amount that dissolves in 1 L of water) ([1]; in 1 L of water): 4 kg

O=C([O-])[C@H](O)[C@@H](O)[C@H](O)[C@H](O)CO.O=C([O-])[C@H](O)[C@@H](O)[C@H](O)[C@H](O)CO.[Zn+2] [zinc gluconate, Zn(O2C(CHOH)4CH2OH)2]
Solubility (in words) [1]: highly soluble

Zn5Cl2(OH)8.H2O [Control]
Percent more zinc in ileal contents than in cecal contents [2]: 2.2% | Concentration of Zinc found in contents of the cecum ([2]; dried cecal contents, day 14, diet zinc found 134 ppm (control) / 152 ppm (experimental)): 399 ppm | Concentration of Zinc found in feces ([2]; dried feces collected days 11-13, diet zinc found 134 ppm (control) / 152 ppm (experimental)): 678 ppm | Concentration of Zinc found in contents of the ileum ([2]; dried ileal contents, day 14, diet zinc found 134 ppm (control) / 152 ppm (experimental)): 408 ppm | Percent Digestibility of Zinc in Feed, Fecal ([2]; 100-[100*(zinc in feed/zinc in feces)]): 80.2% | Percent Digestibility of Zinc in Feed, Cecal [2, 3]: 66.1% | Percent Digestibility of Zinc in Feed, Ileal [2, 3]: 62.6% | Share of total zinc excreted in feces ([2]; fecal zinc vs total of ileal, cecal and fecal zinc): 45.7% | Share of total zinc retained in ilium+cecum ([2]; ileal+cecal zinc vs total of ileal, cecal and fecal zinc): 54.3% | Solubility in water / aqueous solution (in words) (Solubility in water): highly insoluble in water
